Test results reported in US12052991B2, “Substituted pyridinyloxybenzenes and salts thereof and use thereof as herbicidal agents” (Bayer Aktiengesellschaft, priority 2018, dated 2024).

Assays:
Type in all cases: in vivo
[1] = system: Echinochloa crus-galli (ECHCG); assay: Herbicidal post-emergence action (Table B1); conditions: rated visually after about 3 weeks, 100% = plants have died, 0% = like control plants
Procedure, shortened: (§1)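 Visual percent activity relative to untreated controls (100% = plants dead, 0% = like controls) was scored about 3 weeks after treatment. Plants had been sprayed at the one-leaf stage with formulated compound at 1280 or 320 g/ha in 600 L/ha water containing 0.5% additive.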

Lolium rigidum (LOLRI) [2] = assay: Herbicidal post-emergence action (Table B2); conditions: 1280 g/ha; rated visually after about 3 weeks; 100% = plants have died, 0% = like control plants
Experimental: (§2) Seeds of mono- and dicotyledonous weed plants were placed in plastic pots in sandy loam soil (doubly sown with in each case one species of mono- or dicotyledonous weed plants per pot), covered with soil and cultivated in a greenhouse under controlled growth conditions. 2 to 3 weeks after sowing, the test plants were treated at the one-leaf stage. The compounds of the invention, formulated in the form of wettable powders (WP) or as emulsion concentrates (EC), were applied onto the green parts of the plants as aqueous suspension or emulsion with addition of 0.5% additive at a water application rate of 600 liters per hectare (converted). After the test plants had been kept in the greenhouse under optimum growth conditions for about 3 weeks, the activity of the preparations was rated visually in comparison to untreated controls. For example, 100% activity=the plants have died, 0% activity=like control plants. Tables B1 to B12 below show the effects of selected compounds of the general formula (I) according to Table 1 on various harmful plants and an application rate corresponding to 1280 or 320 g/ha, which were obtained by the experimental procedure mentioned above.

Poa annua (POAAN) [3] = assay: Herbicidal post-emergence action (Table B3); conditions: rated visually after about 3 weeks, 100% = plants have died, 0% = like control plants
Procedure, shortened: as §1

[4] = system: Abutilon theophrasti (ABUTH); assay: Herbicidal post-emergence action (Table B5); conditions: rated visually after about 3 weeks, 100% = plants have died, 0% = like control plants
Procedure, shortened: as §1

[5] = system: Amaranthus retroflexus (AMARE); assay: Herbicidal post-emergence action (Table B6); conditions: visual rating about 3 weeks after treatment, 100% = plants have died, 0% = like control plants
Procedure, shortened: as §1

Stellaria media (STEME) [6] = assay: Herbicidal post-emergence action (Table B8); conditions: visual rating about 3 weeks after treatment, 100% = plants have died, 0% = like control plants
Procedure, shortened: as §1

[7] = system: Echinochloa crus-galli (ECHCG); assay: Herbicidal pre-emergence action, test C (Table C1); conditions: visual scoring after about 3 weeks, 100% = plants have died, 0% = like control plants
Text: (§3) Seeds of mono- and dicotyledonous weed plants were placed in plastic pots in sandy loam soil (doubly sown with one species each of mono- or dicotyledonous weed plants per pot) and covered with soil. The compounds of the invention, formulated in the form of wettable powders (WP) or as emulsion concentrates (EC), were then applied onto the surface of the covering soil as aqueous suspension or emulsion with addition of 0.5% additive at a water application rate of 600 liters per hectare (converted). After the treatment, the pots were placed in a greenhouse and kept under good growth conditions for the test plants. After about 3 weeks, the effect of the preparations was scored visually in comparison with untreated controls as percentages. For example, 100% activity=the plants have died, 0% activity=like control plants. Tables C1 to C12 below show the effects of selected compounds of the general formula (I) according to Table 1 on various harmful plants and an application rate corresponding to 1280 or 320 g/ha, which were obtained by the experimental procedure mentioned above.

Lolium rigidum (LOLRI) [8] = assay: Herbicidal pre-emergence action, test C (Table C2); conditions: dosage 1280 g/ha; visual scoring after about 3 weeks; 100% = plants have died, 0% = like control plants
Text: as §3

Poa annua (POAAN) [9] = assay: Herbicidal pre-emergence action, test C (Table C3); conditions: visual scoring after about 3 weeks, 100% = plants have died, 0% = like control plants
Procedure, shortened: (§4)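 Seeds are covered with sandy loam, and the formulated compound is applied to the soil surface before emergence at 1280 or 320 g/ha. Spray carries 0.5% additive at 600 L/ha. Damage is rated visually as percent versus untreated pots after roughly 3 weeks.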

Setaria viridis (SETVI) [10] = assay: Herbicidal pre-emergence action, test C (Table C4); conditions: visual scoring after about 3 weeks, 100% = plants have died, 0% = like control plants
Procedure, shortened: as §4

[11] = system: Abutilon theophrasti (ABUTH); assay: Herbicidal pre-emergence action, test C (Table C5); conditions: visual scoring after about 3 weeks, 100% = plants have died, 0% = like control plants
Procedure, shortened: as §4

[12] = system: Amaranthus retroflexus (AMARE); assay: Herbicidal pre-emergence action, test C (Table C6); conditions: visual scoring after about 3 weeks, 100% = plants have died, 0% = like control plants
Procedure, shortened: as §4

[13] = system: Matricaria inodora (MATIN); assay: Herbicidal pre-emergence action, test C (Table C7); conditions: visual scoring after about 3 weeks, 100% = plants have died, 0% = like control plants
Procedure, shortened: as §4

Stellaria media (STEME) [14] = assay: Herbicidal pre-emergence action, test C (Table C8); conditions: visual scoring after about 3 weeks, 100% = plants have died, 0% = like control plants
Procedure, shortened: as §4

[15] = system: harmful plants ABUTH, AMARE, ECHCG, LOLRI, MATIN, POAAN, SETVI, STEME, ALOMY, DIGSA, KCHSC and VERPE; assay: Herbicidal post-emergence action, summary of Tables B1-B12; conditions: application rate of 1280 or 320 g of active ingredient per hectare; summary in words
Procedure, shortened: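 Greenhouse weeds in sandy loam treated post-emergence at the one-leaf stage, 2–3 weeks after sowing, with WP or EC formulations sprayed with 0.5% additive at 600 L/ha water, 1280 or 320 g/ha. Damage rated visually after about 3 weeks versus untreated controls (0% = like control, 100% = dead).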

[16] = system: harmful plants ABUTH, AMARE, ECHCG, LOLRI, MATIN, POAAN, SETVI, STEME, ALOMY, DIGSA, KCHSC and VERPE; assay: Herbicidal pre-emergence action (test C), summary of Tables C1-C12; conditions: application rate of 1280 or 320 g of active ingredient per hectare; summary in words
Procedure, shortened: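 Pre-emergence pot test in sandy loam: WP or EC formulations were sprayed onto the covering soil with 0.5% additive at 600 L/ha water, at 1280 or 320 g/ha. Plants were kept in the greenhouse, and activity was rated visually about 3 weeks later as % versus untreated controls (100% = dead).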

Setaria viridis (SETVI) [17] = assay: Herbicidal post-emergence action (Table B4); conditions: rated visually after about 3 weeks, 100% = plants have died, 0% = like control plants
Experimental: as §2

[18] = system: Alopecurus myosuroides (ALOMY); assay: Herbicidal post-emergence action (Table B9); conditions: rated visually after about 3 weeks, 100% = plants have died, 0% = like control plants
Procedure, shortened: as §1

[19] = system: Digitaria sanguinalis (DIGSA); assay: Herbicidal post-emergence action (Table B10); conditions: visual rating about 3 weeks after treatment, 100% = plants have died, 0% = like control plants
Procedure, shortened: as §1

Bassia scoparia (KCHSC) [20] = assay: Herbicidal post-emergence action (Table B11); conditions: visual rating about 3 weeks after treatment, 100% = plants have died, 0% = like control plants
Procedure, shortened: as §1

Veronica persica (VERPE) [21] = assay: Herbicidal post-emergence action (Table B12); conditions: visual rating about 3 weeks after treatment, 100% = plants have died, 0% = like control plants
Procedure, shortened: as §1

[22] = system: Alopecurus myosuroides (ALOMY); assay: Herbicidal pre-emergence action, test C (Table C9); conditions: visual scoring after about 3 weeks, 100% = plants have died, 0% = like control plants
Text: as §3

[23] = system: Digitaria sanguinalis (DIGSA); assay: Herbicidal pre-emergence action, test C (Table C10); conditions: visual scoring after about 3 weeks, 100% = plants have died, 0% = like control plants
Procedure, shortened: as §4

Bassia scoparia (KCHSC) [24] = assay: Herbicidal pre-emergence action, test C (Table C11); conditions: visual scoring vs untreated controls
Text: as §3

Veronica persica (VERPE) [25] = assay: Herbicidal pre-emergence action, test C (Table C12); conditions: visual scoring vs untreated controls
Procedure, shortened: as §4

Row | Compound | Post-emergence action against Echinochloa crus-galli (ECHCG) ([1]; 1280 g/ha) | Post-emergence action against Poa annua (POAAN) (Poa annua (POAAN) [3]; 320 g/ha) | Post-emergence action against Poa annua (POAAN) (Poa annua (POAAN) [3]; 1280 g/ha) | Post-emergence action against Abutilon theophrasti (ABUTH) ([4]; 320 g/ha) | Post-emergence action against Abutilon theophrasti (ABUTH) ([4]; 1280 g/ha) | Post-emergence action against Amaranthus retroflexus (AMARE) ([5]; dosage 320 g/ha) | Post-emergence action against Amaranthus retroflexus (AMARE) ([5]; dosage 1280 g/ha) | Post-emergence action against Stellaria media (STEME) (Stellaria media (STEME) [6]; dosage 320 g/ha) | Post-emergence action against Stellaria media (STEME) (Stellaria media (STEME) [6]; dosage 1280 g/ha) | Pre-emergence action against Echinochloa crus-galli (ECHCG) ([7]; dosage 1280 g/ha) | Pre-emergence action against Lolium rigidum (LOLRI) (Lolium rigidum (LOLRI) [8]) | Pre-emergence action against Setaria viridis (SETVI) (Setaria viridis (SETVI) [10]; dosage 320 g/ha) | Pre-emergence action against Setaria viridis (SETVI) (Setaria viridis (SETVI) [10]; dosage 1280 g/ha) | Pre-emergence action against Abutilon theophrasti (ABUTH) ([11]; dosage 320 g/ha) | Pre-emergence action against Abutilon theophrasti (ABUTH) ([11]; dosage 1280 g/ha) | Pre-emergence action against Amaranthus retroflexus (AMARE) ([12]; dosage 320 g/ha) | Pre-emergence action against Amaranthus retroflexus (AMARE) ([12]; dosage 1280 g/ha) | Pre-emergence action against Stellaria media (STEME) (Stellaria media (STEME) [14]; dosage 320 g/ha) | Pre-emergence action against Stellaria media (STEME) (Stellaria media (STEME) [14]; dosage 1280 g/ha) | herbicidal activity against the harmful plants of Tables B1-B12 in post-emergence treatment [15] | further results
1 | Fc1cccc(Oc2ccccn2)c1-c1cc(C(F)F)no1 [Example 1-16] | 100% | 100% | 100% | 100% | 100% | 100% | 100% | 100% | 100% | 90% | 100% | 100% | 100% | 100% | 100% | 100% | 100% | 100% | 100% | very good herbicidal activity | Post-emergence action against Echinochloa crus-galli (ECHCG) ([1]; 320 g/ha): 90%; Post-emergence action against Lolium rigidum (LOLRI) (Lolium rigidum (LOLRI) [2]): 100%; Pre-emergence action against Poa annua (POAAN) (Poa annua (POAAN) [9]; dosage 320 g/ha): 100%; Pre-emergence action against Poa annua (POAAN) (Poa annua (POAAN) [9]; dosage 1280 g/ha): 100%; Pre-emergence action against Matricaria inodora (MATIN) ([13]; dosage 320 g/ha): 90%; Pre-emergence action against Matricaria inodora (MATIN) ([13]; dosage 1280 g/ha): 100%; herbicidal activity against the harmful plants of Tables C1-C12 in pre-emergence treatment [16]: very good herbicidal activity
2 | N#Cc1cccc(Oc2ccc(Cl)cn2)c1-c1cc(C(F)F)no1 [Example 1-55] | 100% | 100% | 100% | 100% | 100% | 100% | 100% | 100% | 100% | 100% | 100% | 100% | 100% | 100% | 100% | 100% | 100% | 100% | 100% | very good herbicidal activity | Post-emergence action against Setaria viridis (SETVI) (Setaria viridis (SETVI) [17]; 320 g/ha): 100%; Post-emergence action against Setaria viridis (SETVI) (Setaria viridis (SETVI) [17]; 1280 g/ha): 100%; Post-emergence action against Alopecurus myosuroides (ALOMY) ([18]; 320 g/ha): 100%; Post-emergence action against Alopecurus myosuroides (ALOMY) ([18]; 1280 g/ha): 100%; Post-emergence action against Digitaria sanguinalis (DIGSA) ([19]; dosage 320 g/ha): 100%; Post-emergence action against Digitaria sanguinalis (DIGSA) ([19]; dosage 1280 g/ha): 100%; Post-emergence action against Bassia scoparia (KCHSC) (Bassia scoparia (KCHSC) [20]; dosage 320 g/ha): 100%; Post-emergence action against Bassia scoparia (KCHSC) (Bassia scoparia (KCHSC) [20]; dosage 1280 g/ha): 100%; Post-emergence action against Veronica persica (VERPE) (Veronica persica (VERPE) [21]; dosage 320 g/ha): 100%; Post-emergence action against Veronica persica (VERPE) (Veronica persica (VERPE) [21]; dosage 1280 g/ha): 100%; Pre-emergence action against Echinochloa crus-galli (ECHCG) ([7]; dosage 320 g/ha): 100%; Pre-emergence action against Alopecurus myosuroides (ALOMY) ([22]; dosage 320 g/ha): 100%; Pre-emergence action against Alopecurus myosuroides (ALOMY) ([22]; dosage 1280 g/ha): 100%; Pre-emergence action against Digitaria sanguinalis (DIGSA) ([23]; dosage 320 g/ha): 100%; Pre-emergence action against Digitaria sanguinalis (DIGSA) ([23]; dosage 1280 g/ha): 100%; Pre-emergence action against Bassia scoparia (KCHSC) (Bassia scoparia (KCHSC) [24]; dosage 320 g/ha): 100%; Pre-emergence action against Bassia scoparia (KCHSC) (Bassia scoparia (KCHSC) [24]; dosage 1280 g/ha): 100%; Pre-emergence action against Veronica persica (VERPE) (Veronica persica (VERPE) [25]; dosage 320 g/ha): 100%; Pre-emergence action against Veronica persica (VERPE) (Veronica persica (VERPE) [25]; dosage 1280 g/ha): 100%; herbicidal activity against the harmful plants of Tables C1-C12 in pre-emergence treatment [16]: very good herbicidal activity
